# Measurements published in patent publication US6127136A, “Detection of dioxin-like compounds by detection of transformed Ah receptor/ARNT complex” (Paracelsian, Inc., priority 1996, dated 2000).
# Test system: transformed DRE/AhR/ARNT complex
# Experiment: size exclusion column of DRE/AhR/ARNT complex followed by SDS-PAGE western blot
# Format: biochemical, guinea pig (hepatic cytosol)
# Protocol: Size-exclusion column: 10 mL bed volume sephacryl S-100-HR (Sigma, St. Louis, Mo.) packed in Econopac column (Biorad cat. no. 732-1010), equilibrated in HEDG plus 200 mM NaCl. Column was hooked up to a peristaltic pump. Flow rate was 0.5 mL/min. The size exclusion column outlet was attached to a HPLC fluorimeter set at excitation 494 nm and emmission 520 nm to detect fluorescein. DRE used was F-ERD oligo (SEQ. ID. #4) and DRE-D oligo (SEQ. ID. #1) hybridized as described above. Cytosol was prepared as described above. Cytosol was dosed with 1:1000 v/v DMSO (-) or 1:1000 v/v 10 uM 2,3,7,8-tetrachlorodibenzo-p-dioxin in DMSO (+).
# Samples were incubated for 2 hours at room temperature as described above to achieve transformation/binding events then put on ice. The entire A sample was loaded onto the Size Exclusion Column and chromatography developed at a flow rate of 0.5 ml/min. Eluant fractions were collected at 2 min intervals (1 mL/fraction). The protocol was repeated for samples B,C,D.
# The fluorimeter readings went offscale and usable readings for the fluorescent DRE were not possible. 200 uL subaliquots of fractions 3-10 were submitted to Sodium Dodecyl Sulfate--PolyAcrylamide Gel Electrophoresis (SDS-PAGE) followed by western blotting. Blots of fractions from samples A and B were probed with anti-ARNT (1:200) and anti-rabbit/alkaline phosphatase (1: 1000) and developed with BCIP/NBT. […]
smiles,measurement,setting,value
"Clc1cc2c(cc1Cl)Oc1cc(Cl)c(Cl)cc1O2 [TCDD, 2,3,7,8-tetrachlorodibenzo-p-dioxin]",ARNT band in size exclusion fraction 3,"sample B (TCDD) vs sample A (DMSO), anti-ARNT blot",showed a band at the size of ARNT (circa 97 kD) that was absent in fraction 3 of sample A
same,rabbit IgG light chain (anti-ARNT) band in size exclusion fraction 5,"sample D (TCDD) vs sample C (DMSO), anti-rabbit blot",showed a band at the size of rabbit IgG light chain (circa 25 kD) that was absent in fraction 5 of sample C
